Source: PubChem BioAssay AID1963827 (Molecular Pharmacology Branch, DTP, NCI, 2024)
pIC50: −log10 of the molar value.

Tested on: 994946-033-R-J1-PDC complex spheroid viability
Assay: Anticancer human tumor 994946-033-R-J1-PDC patient-derived melanoma cell line growth inhibition [POLQ]
Conditions: for pIC50: curve of first compound; for viability, T/C: stronger effect = lower value
How it was run: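 Growth inhibition in 3D: complex spheroids (tumor PDC, HUVEC, MSC) treated with POLQ inhibitor combinations; where Cmax unknown, highest tested concentration 10 microM, except SN-38 at 1 microM.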

[1] = second compound 0.0316 µM, first compound 0.0316 µM
[2] = second compound 0.0316 µM, first compound 0.1 µM
[3] = second compound 0.0316 µM, first compound 0.316 µM
[4] = second compound 0.0316 µM, first compound 1 µM
[5] = second compound 0.0316 µM, first compound 3.16 µM
[6] = second compound 0.0316 µM, first compound 10 µM
[7] = second compound 0.1 µM, first compound 0.0316 µM
[8] = second compound 0.1 µM, first compound 0.1 µM
[9] = second compound 0.1 µM, first compound 0.316 µM
[10] = second compound 0.1 µM, first compound 1 µM
[11] = second compound 0.1 µM, first compound 3.16 µM
[12] = second compound 0.1 µM, first compound 10 µM
[13] = second compound 0.316 µM, first compound 0.0316 µM
[14] = second compound 0.316 µM, first compound 0.1 µM
[15] = second compound 0.316 µM, first compound 0.316 µM
[16] = second compound 0.316 µM, first compound 1 µM
[17] = second compound 0.316 µM, first compound 3.16 µM
[18] = second compound 0.316 µM, first compound 10 µM
[19] = second compound 1 µM, first compound 0.0316 µM
[20] = second compound 1 µM, first compound 0.1 µM
[21] = second compound 1 µM, first compound 0.316 µM
[22] = second compound 1 µM, first compound 1 µM
[23] = second compound 1 µM, first compound 3.16 µM
[24] = second compound 1 µM, first compound 10 µM
[25] = second compound 3.16 µM, first compound 0.0316 µM
[26] = second compound 3.16 µM, first compound 0.1 µM
[27] = second compound 3.16 µM, first compound 0.316 µM
[28] = second compound 3.16 µM, first compound 1 µM
[29] = second compound 3.16 µM, first compound 3.16 µM
[30] = second compound 3.16 µM, first compound 10 µM
[31] = second compound 10 µM, first compound 0.0316 µM
[32] = second compound 10 µM, first compound 0.1 µM
[33] = second compound 10 µM, first compound 0.316 µM
[34] = second compound 10 µM, first compound 1 µM
[35] = second compound 10 µM, first compound 3.16 µM
[36] = second compound 10 µM, first compound 10 µM
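Also: spheroids exposed to drugs for 7 days.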
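For viability, T/C in this document: 100% = DMSO vehicle treated spheroids.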

SMILES: COc1cc(C2c3cc4c(cc3C(OC3OC5COC(C)OC5C(O)C3O)C3COC(=O)C23)OCO4)cc(OC)c1O (stereo not drawn) + Cc1cccc(N(C)C(=O)C2C(O)CCN2c2nc(C)cc(C(F)(F)F)c2C#N)c1
- pIC50 (second compound 0.0316 µM): 6.74
- pIC50 (second compound 0.1 µM): 6.79
- pIC50 (second compound 0.316 µM): 6.60
- pIC50 (second compound 1 µM): 6.68
- pIC50 (second compound 3.16 µM): 6.41
- pIC50 (second compound 10 µM): 5.90
- viability, T/C [1]: 76.3%
- viability, T/C [2]: 55.2%
- viability, T/C [3]: 42.6%
- viability, T/C [4]: 32.4%
- viability, T/C [5]: 14.2%
- viability, T/C [6]: 6.56%
- viability, T/C [7]: 77.8%
- viability, T/C [8]: 47.9%
- viability, T/C [9]: 44.9%
- viability, T/C [10]: 32.4%
- viability, T/C [11]: 10.9%
- viability, T/C [12]: 5.27%
- viability, T/C [13]: 79.7%
- viability, T/C [14]: 63.1%
- viability, T/C [15]: 34.4%
- viability, T/C [16]: 49.7%
- viability, T/C [17]: 12.9%
- viability, T/C [18]: 8.08%
- viability, T/C [19]: 89.2%
- viability, T/C [20]: 49.1%
- viability, T/C [21]: 47.2%
- viability, T/C [22]: 35.3%
- viability, T/C [23]: 13.5%
- viability, T/C [24]: 5.19%
- viability, T/C [25]: 72.5%
- viability, T/C [26]: 64.5%
- viability, T/C [27]: 56.8%
- viability, T/C [28]: 27.4%
- viability, T/C [29]: 14.1%
- viability, T/C [30]: 5.31%
- viability, T/C [31]: 67.5%
- viability, T/C [32]: 45.3%
- viability, T/C [33]: 63.3%
- viability, T/C [34]: 58.7%
- viability, T/C [35]: 14.8%
- viability, T/C [36]: 6.96%

SMILES: CNCc1ccc(-c2[nH]c3cc(F)cc4c3c2CCNC4=O)cc1 + COC1C(OC(N)=O)C(O)C(Oc2ccc3c(O)c(NC(=O)c4ccc(O)c(CC=C(C)C)c4)c(=O)oc3c2C)OC1(C)C
- pIC50 (second compound 0.0316 µM): < 5.00
- pIC50 (second compound 0.1 µM): < 5.00
- pIC50 (second compound 0.316 µM): < 5.00
- pIC50 (second compound 1 µM): < 5.00
- pIC50 (second compound 3.16 µM): < 5.00
- pIC50 (second compound 10 µM): < 5.00
- viability, T/C [1]: 114%
- viability, T/C [2]: 93.7%
- viability, T/C [3]: 96%
- viability, T/C [4]: 96.3%
- viability, T/C [5]: 101%
- viability, T/C [6]: 70.9%
- viability, T/C [7]: 107%
- viability, T/C [8]: 119%
- viability, T/C [9]: 83%
- viability, T/C [10]: 114%
- viability, T/C [11]: 94.4%
- viability, T/C [12]: 93.3%
- viability, T/C [13]: 117%
- viability, T/C [14]: 126%
- viability, T/C [15]: 105%
- viability, T/C [16]: 117%
- viability, T/C [17]: 107%
- viability, T/C [18]: 61.1%
- viability, T/C [19]: 107%
- viability, T/C [20]: 91.4%
- viability, T/C [21]: 88.4%
- viability, T/C [22]: 110%
- viability, T/C [23]: 109%
- viability, T/C [24]: 61.6%
- viability, T/C [25]: 92.9%
- viability, T/C [26]: 95.2%
- viability, T/C [27]: 106%
- viability, T/C [28]: 112%
- viability, T/C [29]: 99.2%
- viability, T/C [30]: 72.8%
- viability, T/C [31]: 117%
- viability, T/C [32]: 94.6%
- viability, T/C [33]: 80.3%
- viability, T/C [34]: 85.1%
- viability, T/C [35]: 94.5%
- viability, T/C [36]: 64.8%

SMILES: CC(C)n1c(=O)n(C)c2cnc3cc(F)c(-c4ccc(OCCCN5CCCCC5)nc4)cc3c21 + Cc1cccc(N(C)C(=O)C2C(O)CCN2c2nc(C)cc(C(F)(F)F)c2C#N)c1
- pIC50 (second compound 0.0316 µM): 5.20
- pIC50 (second compound 0.1 µM): 5.33
- pIC50 (second compound 0.316 µM): 5.26
- pIC50 (second compound 1 µM): 5.25
- pIC50 (second compound 3.16 µM): 5.18
- pIC50 (second compound 10 µM): 5.38
- viability, T/C [1]: 97.3%
- viability, T/C [2]: 97.6%
- viability, T/C [3]: 87.2%
- viability, T/C [4]: 74.2%
- viability, T/C [5]: 71.4%
- viability, T/C [6]: 37.8%
- viability, T/C [7]: 92.1%
- viability, T/C [8]: 67.6%
- viability, T/C [9]: 75.8%
- viability, T/C [10]: 62.5%
- viability, T/C [11]: 69.3%
- viability, T/C [12]: 23.8%
- viability, T/C [13]: 82.5%
- viability, T/C [14]: 117%
- viability, T/C [15]: 87.9%
- viability, T/C [16]: 93.6%
- viability, T/C [17]: 84.5%
- viability, T/C [18]: 11.8%
- viability, T/C [19]: 97%
- viability, T/C [20]: 81%
- viability, T/C [21]: 94%
- viability, T/C [22]: 93.6%
- viability, T/C [23]: 83.5%
- viability, T/C [24]: 16.3%
- viability, T/C [25]: 94.8%
- viability, T/C [26]: 62.2%
- viability, T/C [27]: 94.4%
- viability, T/C [28]: 90.7%
- viability, T/C [29]: 92%
- viability, T/C [30]: 29.4%
- viability, T/C [31]: 109%
- viability, T/C [32]: 92.6%
- viability, T/C [33]: 93.2%
- viability, T/C [34]: 74.7%
- viability, T/C [35]: 63.2%
- viability, T/C [36]: 22.3%

SMILES: COc1cc2cc(C(=O)CCC(=O)O)sc2cc1OC + COC1C(OC(N)=O)C(O)C(Oc2ccc3c(O)c(NC(=O)c4ccc(O)c(CC=C(C)C)c4)c(=O)oc3c2C)OC1(C)C
- pIC50 (second compound 0.0316 µM): < 5.00
- pIC50 (second compound 0.1 µM): < 5.00
- pIC50 (second compound 0.316 µM): < 5.00
- pIC50 (second compound 1 µM): < 5.00
- pIC50 (second compound 3.16 µM): < 5.00
- pIC50 (second compound 10 µM): < 5.00
- viability, T/C [1]: 91.3%
- viability, T/C [2]: 83%
- viability, T/C [3]: 98.6%
- viability, T/C [4]: 118%
- viability, T/C [5]: 98.8%
- viability, T/C [6]: 96.8%
- viability, T/C [7]: 89.9%
- viability, T/C [8]: 101%
- viability, T/C [9]: 109%
- viability, T/C [10]: 116%
- viability, T/C [11]: 86.8%
- viability, T/C [12]: 77.5%
- viability, T/C [13]: 93.5%
- viability, T/C [14]: 102%
- viability, T/C [15]: 84.5%
- viability, T/C [16]: 82.4%
- viability, T/C [17]: 105%
- viability, T/C [18]: 86.4%
- viability, T/C [19]: 93.4%
- viability, T/C [20]: 90.8%
- viability, T/C [21]: 94.1%
- viability, T/C [22]: 76.9%
- viability, T/C [23]: 83.3%
- viability, T/C [24]: 100%
- viability, T/C [25]: 101%
- viability, T/C [26]: 75.9%
- viability, T/C [27]: 106%
- viability, T/C [28]: 82.4%
- viability, T/C [29]: 87.5%
- viability, T/C [30]: 78.6%
- viability, T/C [31]: 90.8%
- viability, T/C [32]: 109%
- viability, T/C [33]: 83.7%
- viability, T/C [34]: 71.4%
- viability, T/C [35]: 105%
- viability, T/C [36]: 80.6%
